Experimental data as given in US20260242365A1, “USES OF CERTAIN 1,4-OXAZEPANE-2-CARBOXAMIDES AS DPP1 INHIBITORS” (Insmed Incorporated, priority 2023, published 2026).

Key:
human DPP1 = biological target: T1, human DPP1 (Homo sapiens, UniProt P53634); assay: Human DPP1 Enzyme IC50 Assay; format: biochemical; details: activated human DPP1 enzyme, H-Gly-Arg-AMC substrate
T1 construct: was first proteolytically processed into its mature form using recombinant human cathepsin L; purchased R&D Systems
Experimental: Recombinant human DPP1 enzyme (R&D Systems; Minneapolis, MN) was first proteolytically processed into its mature form using recombinant human cathepsin L (R&D Systems) in a buffer consisting of 20 mM citric acid pH 4.5, 150 mM NaCl, 1 mM EDTA and 10 mM DTT. Alternatively, a crude lysate of HL-60 cells (ATCC; Manassas, VA) is used as a source of human DPP1 enzyme in the assay. Lysate was prepared in 1% Triton X-100 in PBS at a concentration of 20,000 live cells per μL of lysis buffer and centrifuged at 16,000×g for 10 minutes at 4° C., after which supernatant was collected and flash-frozen in liquid nitrogen.
Test articles were applied to activated human DPP1 enzyme in Assay Buffer (25 mM MES pH 6.0, 50 mM NaCl, 5 mM DTT) in a total reaction volume of 125 μL. 25 μL of compound in Assay Buffer plus 5% DMSO was first added to 50 μL of activated human DPP1 enzyme at a concentration of 1 ng/μL and allowed to pre-incubate for 10 minutes at 37° C. after which 50 μL of 1000 μM H-Gly-Arg-AMC substrate (Bachem; St. Torrance, CA) was added, giving final substrate concentration of 400 μM and a final DMSO concentration of 1%. Substrate cleavage was measured for 90 minutes at 37° C., with fluorescence at Excitation/Emission 350/450 nm measured every 5 minutes. DPP1 concentration was interpolated based on its activity relative to a standard curve of activated human recombinant DPP1 enzyme. IC50 values for each compound were calculated via the XLFit (IDBS Version 5.3.1.3) Add-On to Microsoft Excel using the four parameter fit equation y=(A+ ((B−A)/(1+ ((C/x)^D)))), which appears as equation number 205 (4 Parameter Logistic Model or Sigmoidal Dose-Response Model) in XLFit. Default constraints were used for each Parameter.

mouse DPP1 = biological target: T2, mouse DPP1 (Mus musculus, UniProt P97821); assay: Mouse DPP1 Enzyme IC50 Assay; format: biochemical; details: active mouse DPP1 enzyme, H-Gly-Arg-AMC substrate
T2 construct: Test articles were applied to active mouse DPP1 enzyme; purchased R&D Systems
Experimental: Test articles were applied to active mouse DPP1 enzyme (R&D Systems; Minneapolis, MN) in Assay Buffer (50 mM MES pH 5.5, 50 mM NaCl, 5 mM DTT) in a total reaction volume of 125 μL. 25 μL of compound in Assay Buffer plus 5% DMSO was first added to 50 μL of active mouse DPP1 enzyme at a concentration of […] and allowed to pre-incubate for 10 minutes at 37° C. after which 50 μL of 1000 μM H-Gly-Arg-AMC substrate (Bachem; St. Torrance, CA) was added, giving final substrate concentration of 400 μM and a final DMSO concentration of 1%. Substrate cleavage was measured for 90 minutes at 37° C., with fluorescence at Excitation/Emission 350/450 nm measured every 5 minutes. DPP1 concentration was interpolated based on its activity relative to a standard curve of recombinant active mouse DPP1 enzyme. IC50 values for each compound were calculated via the XLFit (IDBS Version 5.3.1.3) Add-On to Microsoft Excel using the four parameter fit equation y= (A+ ((B−A)/(1+ ((C/x)^D)))), which appears as equation number 205 (4 Parameter Logistic Model or Sigmoidal Dose-Response Model) in XLFit. Default constraints were used for each Parameter. IC50 was defined as the compound concentration at which 50% of enzyme activity was inhibited when compared to the no-compound control.

T2 sequence (P97821 25-134 limits assumed): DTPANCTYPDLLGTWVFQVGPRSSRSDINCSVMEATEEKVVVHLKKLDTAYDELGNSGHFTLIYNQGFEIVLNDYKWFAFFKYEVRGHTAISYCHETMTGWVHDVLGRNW
T2 sequence (P97821 231-393 limits assumed): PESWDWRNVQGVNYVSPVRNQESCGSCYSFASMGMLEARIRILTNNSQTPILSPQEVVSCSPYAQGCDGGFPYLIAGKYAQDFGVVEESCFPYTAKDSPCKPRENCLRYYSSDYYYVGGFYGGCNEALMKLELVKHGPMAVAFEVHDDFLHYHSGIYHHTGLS
T2 sequence (P97821 394-462 limits assumed): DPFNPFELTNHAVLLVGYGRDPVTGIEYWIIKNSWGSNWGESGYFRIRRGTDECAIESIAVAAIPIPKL
T1 sequence (P53634 25-134 limits assumed): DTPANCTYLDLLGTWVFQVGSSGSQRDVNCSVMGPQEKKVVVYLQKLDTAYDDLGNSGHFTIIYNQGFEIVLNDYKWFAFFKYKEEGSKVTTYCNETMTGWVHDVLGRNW
T1 sequence (P53634 231-394 limits assumed): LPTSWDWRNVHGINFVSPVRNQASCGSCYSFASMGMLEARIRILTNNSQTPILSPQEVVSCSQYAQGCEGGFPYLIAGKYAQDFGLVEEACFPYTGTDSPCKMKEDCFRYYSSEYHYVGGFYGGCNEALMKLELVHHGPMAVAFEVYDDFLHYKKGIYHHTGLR
T1 sequence (P53634 395-463 limits assumed): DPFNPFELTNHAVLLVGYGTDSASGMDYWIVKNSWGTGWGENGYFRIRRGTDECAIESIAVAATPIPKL

| IC50 (human DPP1) [nM] | IC50 (mouse DPP1) [nM] | Compound |
| --- | --- | --- |
| 0.6 ± 0.1 | 0.3 ± 0.1 | COC1CNC[C@@H](C(=O)N[C@H](C#N)Cc2ccc(-c3ccc4oc(=O)n(C)c4c3)cc2)OC1 (single isomer, unassigned) [INSM-203, (2S,6R*)—N-[(1S)-1-cyano-2-[4-(3-methyl-2-oxo-2,3-dihydro-1,3-benzoxazol-5-yl)phenyl]ethyl]-6-methoxy-1,4-oxazepane-2-carboxamide] |
| 2.03 ± 0.2 | 2.3 ± 0.4 | Cn1c(=O)oc2ccc(-c3ccc(C[C@@H](C#N)NC(=O)[C@@H]4CNC[C@H](O)CO4)cc3)cc21 (single isomer, unassigned) [INSM-201, (2S,6S*)—N-[(1S)-1-cyano-2-[4-(3-methyl-2-oxo-2,3-dihydro-1,3-benzoxazol-5-yl)phenyl]ethyl]-6-hydroxy-1,4-oxazepane-2-carboxamide] |
| 1.03 ± 0.1 | 0.7 ± 0.2 | COC1CNC[C@@H](C(=O)N[C@H](C#N)Cc2ccc(-c3ccc4oc(=O)n(C)c4c3)cc2)OC1 (mixture of isomers) [INSM-202, (6-rac)-(2S)—N-[(1S)-1-cyano-2-[4-(3-methyl-2-oxo-2,3-dihydro-1,3-benzoxazol-5-yl)phenyl]ethyl]-6-methoxy-1,4-oxazepane-2-carboxamide] |
